Consider nine compounds from patent US10227331B2 (priority 2015, dated 2019).

Each structure is given as a SMILES string.

One series has as its target IMP-1 (Serratia marcescens, UniProt P52699). The series is described as follows: biochemical. The format is biochemical. To be noted: CCF2-FA substrate, 2 hours at 25° C; read-out: IMP-1 IC50. A digest of the protocol:
(§1)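 Enzyme activity was measured by fluorescence using CCF2-FA, a cephalosporin-linked 7-hydroxycoumarin/fluorescein substrate, with inhibitor, metallo-β-lactamase and substrate incubated together for 2 hours at 25° C. IC50 came from a 4-parameter fit of inhibition versus log inhibitor concentration.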

For the next series, the target named is NDM-1 (Klebsiella pneumoniae, UniProt C7C422). The series is described as follows: biochemical. The format is biochemical. Conditions: CCF2-FA substrate, 2 hours at 25° C; read-out: NDM-1 IC50. A digest of the protocol: as §1
NDM-1, sequence (C7C422 whole entry, looked up, species assumed): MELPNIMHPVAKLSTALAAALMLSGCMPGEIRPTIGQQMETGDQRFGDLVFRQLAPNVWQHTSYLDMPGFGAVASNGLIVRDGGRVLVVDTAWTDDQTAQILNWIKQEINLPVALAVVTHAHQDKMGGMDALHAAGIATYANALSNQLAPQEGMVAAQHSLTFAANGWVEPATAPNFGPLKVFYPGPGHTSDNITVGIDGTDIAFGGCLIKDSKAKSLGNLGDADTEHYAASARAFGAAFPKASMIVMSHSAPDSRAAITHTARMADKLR
A further series has as its target VIM-1 (Pseudomonas aeruginosa (strain ATCC 15692 / DSM 22644 / CIP 104116 / JCM 14847 / LMG 12228 / 1C / PRS 101 / PAO1), UniProt A0A0F7KYQ8). The experiment in a line: biochemical. To be noted: CCF2-FA substrate, 2 hours at 25° C. The method, boiled down:
as §1

Series [1] relates to Serratia marcescens expressing IMP-1 (CL5741). The format is cell-based. Conditions: with imipenem 1 μg/ml, 95% inhibition of bacterial growth; for Serratia marcescens MITC95: IMP-1 (CL5741). The method, boiled down: (§2)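 Restoration of imipenem susceptibility (1 μg/ml imipenem) was judged by absorbance after 22–24 h at 35° C. Test compound was added to bacteria suspended 1:100 in 1.1× CAMHB from overnight blood-agar cultures.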

Series [2] relates to Escherichia coli expressing NDM-1 (CLB30005, CLB30016). The series is classed as cell-based. To be noted: with imipenem 1 μg/ml, 95% inhibition of bacterial growth; for Escherichia coli MITC95: NDM-1 (CLB30016). The method, boiled down:
as §2

The test system of series [3] is Klebsiella pneumoniae expressing VIM-1 (IHMA599644). The format is cell-based. To be noted: with imipenem 1 μg/ml, 95% inhibition of bacterial growth; for Klebsiella pneumoniae MITC95: VIM-1 (IHMA599644). The method, boiled down: as §2
The test system of series [4] is P. aeruginosa expressing IMP-1, efflux+ (MB9798). The series is classed as cell-based, Pseudomonas aeruginosa. To be noted: for P. aeruginosa expressing IMP-1, efflux+ (MB9798) MITC95: imipenem at 2 μg/mL, in the presence of a class A, C, D serine β-lactamase inhibitor closely related to relebactam; for Efflux ratio: ratio MITC95 PA_9798/MITC95 PA_9799. From the text: (§3) The strain background is Pseudomonas aeruginosa PAO1.

Series [5] concerns P. aeruginosa expressing IMP-1, efflux− (MB9799). The experiment in a line: Efflux: concentration of MBL inhibitor which restores susceptibility to imipenem. The series is classed as cell-based, Pseudomonas aeruginosa. To be noted: imipenem at 2 μg/mL, in the presence of a class A, C, D serine β-lactamase inhibitor closely related to relebactam.
Excerpt: as §3

IMP-1, sequence (P52699 whole entry, looked up, species assumed): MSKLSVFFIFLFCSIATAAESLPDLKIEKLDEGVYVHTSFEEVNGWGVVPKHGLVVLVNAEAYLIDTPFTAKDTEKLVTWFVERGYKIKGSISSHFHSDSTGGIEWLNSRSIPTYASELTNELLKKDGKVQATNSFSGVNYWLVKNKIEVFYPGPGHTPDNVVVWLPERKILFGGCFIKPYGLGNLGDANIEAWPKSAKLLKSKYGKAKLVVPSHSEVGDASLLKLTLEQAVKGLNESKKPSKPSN

In the case of `Nc1nc2c(-c3ccc(S(=O)(=O)[C@H]4CN[C@H](CO)C4)c(S(N)(=O)=O)c3-c3nn[nH]n3)cccc2s1` [Example 292, 3-(2-aminobenzo[d]thiazol-4-yl)-6-((3R,5S)-5-(hydroxymethyl)pyrrolidin-3-ylsulfonyl)-2-(2H-tetrazol-5-yl)benzenesulfonamide], the IC50 (commonly the concentration at which inhibition is half-maximal) stood at 0.27 nM on IMP-1, 0.161 nM at NDM-1 and 0.332 nM against VIM-1. Also, the “Serratia marcescens MITC95” value in series [1] was 1.563 µM. Besides, in series [2], the “Escherichia coli MITC95” value is 3.125 µM. The “Klebsiella pneumoniae MITC95” value in series [3] came out at 3.125 µM. Further, in series [4], the “P. aeruginosa expressing IMP-1, efflux+ (MB9798) MITC95” value was 1.563 µM. Further, the Efflux ratio in series [4] was 1.00. Further, the “P. aeruginosa expressing IMP-1, efflux− (MB9799) MITC95” value in series [5] amounted to 1.563 µM.

Regarding `NC[C@H](O)CS(=O)(=O)c1ccc(-c2cccc3[nH]c(N)nc23)c(-c2nn[nH]n2)c1S(N)(=O)=O` [Example 282, 3-(2-amino-1H-benzo[d]imidazol-4-yl)-6-((S)-3-amino-2-hydroxypropylsulfonyl)-2-(2H-tetrazol-5-yl)benzenesulfonamide], the IC50 is 0.777 nM at IMP-1, 0.157 nM on NDM-1 and 0.28 nM against VIM-1. In addition, the “Serratia marcescens MITC95” value in series [1] is 0.5156 µM. Besides, the “Escherichia coli MITC95” value in series [2] came to 0.3438 µM. In addition, the “Klebsiella pneumoniae MITC95” value in series [3] worked out at 0.8359 µM. Moreover, the “P. aeruginosa expressing IMP-1, efflux+ (MB9798) MITC95” value in series [4] amounted to 0.418 µM. Further, in series [4], the Efflux ratio is 1.00. In series [5], the “P. aeruginosa expressing IMP-1, efflux− (MB9799) MITC95” value came to 0.418 µM.

Regarding `Nc1nc2c(-c3ccc(S(=O)(=O)C[C@H](N)CO)c(S(N)(=O)=O)c3-c3nn[nH]n3)cccc2[nH]1` [Example 273, 3-(2-amino-1H-benzo[d]imidazol-4-yl)-6-((R)-2-amino-3-hydroxypropylsulfonyl)-2-(2H-tetrazol-5-yl)benzenesulfonamide], the IC50 is 0.709 nM at IMP-1, 0.147 nM on NDM-1 and 0.254 nM against VIM-1. Further, the “Serratia marcescens MITC95” value in series [1] is 1.563 µM. The “Escherichia coli MITC95” value in series [2] came out at 0.3906 µM. In series [3], the “Klebsiella pneumoniae MITC95” value is 1.563 µM. Moreover, the “P. aeruginosa expressing IMP-1, efflux+ (MB9798) MITC95” value in series [4] is 0.7813 µM. In series [4], the Efflux ratio came to 1.00. Besides, the “P. aeruginosa expressing IMP-1, efflux− (MB9799) MITC95” value in series [5] came out at 0.7813 µM.

For the compound `NCCS(=O)(=O)c1ccc(-c2cccc(C(=O)O)c2N)c(-c2nn[nH]n2)c1S(N)(=O)=O` [Example 199, 2-Amino-4′-((2-aminoethyl)sulfonyl)-3′-sulfamoyl-2′-(2H-tetrazol-5-yl)-[1,1′-biphenyl]-3-carboxylic Acid], the IC50 is 1.84 nM on IMP-1, 0.197 nM at NDM-1 and 0.646 nM against VIM-1. Besides, the “Serratia marcescens expressing IMP-1 (CL5741) MITC95” value in series [1] came to 12.5 µM. Moreover, the “Escherichia coli expressing NDM-1 (CLB30016) MITC95” value in series [2] came to 6.25 µM. Also, the “Klebsiella pneumoniae expressing VIM-1 (IHMA599644) MITC95” value in series [3] turned out to be 25 µM. In addition, the “P. aeruginosa expressing IMP-1, efflux+ (MB9798) MITC95” value in series [4] is 12.5 µM. The Efflux ratio in series [4] was found to be 2.00. Also, the “P. aeruginosa expressing IMP-1, efflux− (MB9799) MITC95” value in series [5] was 6.25 µM.

Take `NS(=O)(=O)c1c(S(=O)(=O)C2CNC2)ccc(-c2cnc3ccccc3c2)c1-c1nnn[nH]1.O=C(O)C(F)(F)F` [Example 98, 3-((4-(quinolin-3-yl)-2-sulfamoyl-3-(1H-tetrazol-5-yl)phenyl)sulfonyl)azetidin-1-ium 2,2,2-trifluoroacetate]: the IC50 was 1.97 nM at IMP-1, 0.4 nM on NDM-1 and 0.241 nM against VIM-1. Moreover, the “Serratia marcescens expressing IMP-1 (CL5741) MITC95” value in series [1] was found to be 3.125 µM. For the same compound, the “Escherichia coli expressing NDM-1 (CLB30016) MITC95” value in series [2] turned out to be 3.125 µM. For the same compound, the “Klebsiella pneumoniae expressing VIM-1 (IHMA599644) MITC95” value in series [3] was 3.125 µM. Further, in series [4], the “P. aeruginosa expressing IMP-1, efflux+ (MB9798) MITC95” value stood at 25 µM. Further, the Efflux ratio in series [4] was 15.99. Further, in series [5], the “P. aeruginosa expressing IMP-1, efflux− (MB9799) MITC95” value was 1.563 µM.

Consider `NC[C@H](N)CS(=O)(=O)c1ccc(-c2ccc(N)nc2)c(-c2nn[nH]n2)c1S(N)(=O)=O` [Example 372, (S)-3-(6-aminopyridin-3-yl)-6-((2,3-diaminopropyl)sulfonyl)-2-(2H-tetrazol-5-yl) benzenesulfonamide], for which the IC50 on IMP-1 worked out at 1.43 nM; on NDM-1 it was 1.17 nM; on VIM-1 it was 0.992 nM. The “Serratia marcescens MITC95” value in series [1] stood at 1.563 µM. In addition, the “Escherichia coli MITC95” value in series [2] came to 0.7813 µM. In addition, the “Klebsiella pneumoniae MITC95” value in series [3] was found to be 3.125 µM. Further, the “P. aeruginosa expressing IMP-1, efflux+ (MB9798) MITC95” value in series [4] was 3.125 µM. The Efflux ratio in series [4] turned out to be 2.00. Moreover, in series [5], the “P. aeruginosa expressing IMP-1, efflux− (MB9799) MITC95” value was determined as 1.563 µM.

For the compound `Cc1ccc(-c2ccc(S(=O)(=O)C3CNC3)c(S(N)(=O)=O)c2-c2nn[nH]n2)c2nc(N)[nH]c12` [Example 15, 3-(2-Amino-7-methyl-1H-benzo[d]imidazol-4-yl)-6-(azetidin-3-ylsulfonyl)-2-(2H-tetrazol-5-yl)benzenesulfonamide], the IC50 was 0.613 nM on IMP-1, 0.0897 nM at NDM-1 and 0.206 nM against VIM-1. In series [1], the “Serratia marcescens expressing IMP-1 (CL5741) MITC95” value turned out to be 0.3906 µM. In series [2], the “Escherichia coli expressing NDM-1 (CLB30016) MITC95” value was 0.3906 µM. In series [3], the “Klebsiella pneumoniae expressing VIM-1 (IHMA599644) MITC95” value was 0.7813 µM. Also, the “P. aeruginosa expressing IMP-1, efflux+ (MB9798) MITC95” value in series [4] was 0.3906 µM. In series [4], the Efflux ratio turned out to be 1.00. Further, the “P. aeruginosa expressing IMP-1, efflux− (MB9799) MITC95” value in series [5] came out at 0.3906 µM.

For `Nc1nc2c(-c3ccc(S(=O)(=O)[C@@H]4CCNC4)c(S(N)(=O)=O)c3-c3nn[nH]n3)cccc2s1` [Example 183, 3-(2-aminobenzo[d]thiazol-4-yl)-6((R)-pyrrolidin-3-ylsulfonyl)-2-(2H-tetrazol-5-yl)benzenesulfonamide], the IC50 on IMP-1 is 0.157 nM; at NDM-1, 0.122 nM; against VIM-1, 0.294 nM. In series [1], the “Serratia marcescens expressing IMP-1 (CL5741) MITC95” value came to 1.563 µM. Also, in series [2], the “Escherichia coli expressing NDM-1 (CLB30016) MITC95” value was found to be 0.7813 µM. The “Klebsiella pneumoniae expressing VIM-1 (IHMA599644) MITC95” value in series [3] was 1.563 µM. The “P. aeruginosa expressing IMP-1, efflux+ (MB9798) MITC95” value in series [4] is 0.7813 µM. In addition, the Efflux ratio in series [4] was 1.00. Besides, the “P. aeruginosa expressing IMP-1, efflux− (MB9799) MITC95” value in series [5] came to 0.7813 µM.

For the compound `CS(=O)(=O)N1CCC(S(=O)(=O)c2ccc(-c3cccc4nc(N)[nH]c34)c(-c3nn[nH]n3)c2S(N)(=O)=O)CC1` [Example 45, 3-(2-amino-3H-benzo[d]imidazol-4-yl)-6-(1-(methylsulfonyl)piperidin-4-ylsulfonyl)-2-(2H-tetrazol-5-yl)benzenesulfonamide], the IC50 amounted to 1.69 nM at IMP-1, 0.29 nM on NDM-1 and 0.135 nM at VIM-1. For the same compound, the “Serratia marcescens expressing IMP-1 (CL5741) MITC95” value in series [1] was determined as 6.25 µM. The “Escherichia coli expressing NDM-1 (CLB30016) MITC95” value in series [2] turned out to be 25 µM. Besides, the “Klebsiella pneumoniae expressing VIM-1 (IHMA599644) MITC95” value in series [3] was found to be 6.25 µM. In series [4], the “P. aeruginosa expressing IMP-1, efflux+ (MB9798) MITC95” value amounted to 50 µM. In addition, the Efflux ratio in series [4] came to 16.00. In addition, the “P. aeruginosa expressing IMP-1, efflux− (MB9799) MITC95” value in series [5] was 3.125 µM.
